pIC50: −log10 of the molar value.
System: NCI-H196 complex spheroid growth, percent test/control
Test: Anticancer human tumor NCI-H196 cell line growth inhibition [AhR];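 further: seven days of drug exposure starting three days after plating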;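 on viability, T/C: 100% = DMSO vehicle control wells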
Details: for pIC50: curve of first compound; for viability, T/C: stronger effect = lower value; active means viability on the fitted dose curve at most 10% of control; inactive means the rest
In short: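 Spheroids combined tumor cells with HUVEC endothelial cells and human MSCs as stroma. AhR antagonists were paired with standard or investigational drugs, each dosed in half-log steps down from near clinical Cmax, or from 10 microM where Cmax was unknown.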

[1] = second compound 0.1 µM, first compound 0.0316 µM
[2] = second compound 0.1 µM, first compound 0.1 µM
[3] = second compound 0.1 µM, first compound 0.316 µM
[4] = second compound 0.1 µM, first compound 1 µM
[5] = second compound 0.1 µM, first compound 3.16 µM
[6] = second compound 0.1 µM, first compound 10 µM
[7] = second compound 0.316 µM, first compound 0.0316 µM
[8] = second compound 0.316 µM, first compound 0.1 µM
[9] = second compound 0.316 µM, first compound 0.316 µM
[10] = second compound 0.316 µM, first compound 1 µM
[11] = second compound 0.316 µM, first compound 3.16 µM
[12] = second compound 0.316 µM, first compound 10 µM
[13] = second compound 1 µM, first compound 0.0316 µM
[14] = second compound 1 µM, first compound 0.1 µM
[15] = second compound 1 µM, first compound 0.316 µM
[16] = second compound 1 µM, first compound 1 µM
[17] = second compound 1 µM, first compound 3.16 µM
[18] = second compound 1 µM, first compound 10 µM
[19] = second compound 3.16 µM, first compound 0.0316 µM
[20] = second compound 3.16 µM, first compound 0.1 µM
[21] = second compound 3.16 µM, first compound 0.316 µM
[22] = second compound 3.16 µM, first compound 1 µM
[23] = second compound 3.16 µM, first compound 3.16 µM
[24] = second compound 3.16 µM, first compound 10 µM
[25] = second compound 10 µM, first compound 0.0316 µM
[26] = second compound 10 µM, first compound 0.1 µM
[27] = second compound 10 µM, first compound 0.316 µM
[28] = second compound 10 µM, first compound 1 µM
[29] = second compound 10 µM, first compound 3.16 µM
[30] = second compound 10 µM, first compound 10 µM

CC1COCCN1c1cc(C2(S(C)(=N)=O)CC2)nc(-c2ccnc3[nH]ccc23)n1 (stereo not given) + Cc1ccccc1N=Nc1ccc(NC(=O)c2ccnn2C)c(C)c1
inactive: viability, T/C [1] 98.5% | viability, T/C [2] 101% | viability, T/C [3] 98.8% | viability, T/C [4] 101% | viability, T/C [5] 81.5% | viability, T/C [6] 69.7% | viability, T/C [7] 99.3% | viability, T/C [8] 102% | viability, T/C [9] 99.2% | viability, T/C [10] 92.5% | viability, T/C [11] 80.5% | viability, T/C [12] 72.6% | viability, T/C [13] 96.3% | viability, T/C [14] 104% | viability, T/C [15] 101% | viability, T/C [16] 94% | viability, T/C [17] 87.7% | viability, T/C [18] 70% | viability, T/C [19] 96.2% | viability, T/C [20] 99.1% | viability, T/C [21] 97.4% | viability, T/C [22] 88.6% | viability, T/C [23] 81.8% | viability, T/C [24] 74% | viability, T/C [25] 85.7% | viability, T/C [26] 93.1% | viability, T/C [27] 101% | viability, T/C [28] 89.7% | viability, T/C [29] 78.3% | viability, T/C [30] 76.6%
< 5.00: pIC50 (second compound 0.1 µM) | pIC50 (second compound 0.316 µM) | pIC50 (second compound 1 µM) | pIC50 (second compound 3.16 µM) | pIC50 (second compound 10 µM)

CC(C)c1c(-c2ccccc2)nc2c(C#N)c[nH]n2c1=O + Cc1ccccc1N=Nc1ccc(NC(=O)c2ccnn2C)c(C)c1
< 5.00: pIC50 (second compound 0.1 µM) | pIC50 (second compound 0.316 µM) | pIC50 (second compound 1 µM) | pIC50 (second compound 3.16 µM) | pIC50 (second compound 10 µM)
inactive: viability, T/C [1] 103% | viability, T/C [2] 104% | viability, T/C [3] 89.5% | viability, T/C [4] 99.1% | viability, T/C [5] 112% | viability, T/C [6] 97.9% | viability, T/C [7] 95.6% | viability, T/C [8] 99.4% | viability, T/C [9] 99.4% | viability, T/C [10] 93.6% | viability, T/C [11] 103% | viability, T/C [12] 88.7% | viability, T/C [13] 97.7% | viability, T/C [14] 96.9% | viability, T/C [15] 101% | viability, T/C [16] 97% | viability, T/C [17] 99.3% | viability, T/C [18] 104% | viability, T/C [19] 109% | viability, T/C [20] 100% | viability, T/C [21] 101% | viability, T/C [22] 96.3% | viability, T/C [23] 94.9% | viability, T/C [24] 104% | viability, T/C [25] 95% | viability, T/C [26] 98% | viability, T/C [27] 96.5% | viability, T/C [28] 95.7% | viability, T/C [29] 96.1% | viability, T/C [30] 95.7%

Nc1ncn(C2CC(O)C(CO)S2)c(=O)n1 (stereo not given) + Cc1ccccc1N=Nc1ccc(NC(=O)c2ccnn2C)c(C)c1
< 6.52: pIC50 (second compound 0.1 µM) | pIC50 (second compound 0.316 µM) | pIC50 (second compound 1 µM) | pIC50 (second compound 3.16 µM) | pIC50 (second compound 10 µM)
inactive: viability, T/C (second compound 0.1 µM, first compound 0.000949 µM) 95% | viability, T/C (second compound 0.1 µM, first compound 0.003 µM) 93.4% | viability, T/C (second compound 0.1 µM, first compound 0.00949 µM) 99.1% | viability, T/C (second compound 0.1 µM, first compound 0.03 µM) 96.8% | viability, T/C (second compound 0.1 µM, first compound 0.0949 µM) 102% | viability, T/C (second compound 0.1 µM, first compound 0.3 µM) 101% | viability, T/C (second compound 0.316 µM, first compound 0.000949 µM) 105% | viability, T/C (second compound 0.316 µM, first compound 0.003 µM) 96.2% | viability, T/C (second compound 0.316 µM, first compound 0.00949 µM) 104% | viability, T/C (second compound 0.316 µM, first compound 0.03 µM) 96% | viability, T/C (second compound 0.316 µM, first compound 0.0949 µM) 101% | viability, T/C (second compound 0.316 µM, first compound 0.3 µM) 95.4% | viability, T/C (second compound 1 µM, first compound 0.000949 µM) 97.6% | viability, T/C (second compound 1 µM, first compound 0.003 µM) 89.9% | viability, T/C (second compound 1 µM, first compound 0.00949 µM) 97.9% | viability, T/C (second compound 1 µM, first compound 0.03 µM) 87.3% | viability, T/C (second compound 1 µM, first compound 0.0949 µM) 91% | viability, T/C (second compound 1 µM, first compound 0.3 µM) 104% | viability, T/C (second compound 3.16 µM, first compound 0.000949 µM) 89.3% | viability, T/C (second compound 3.16 µM, first compound 0.003 µM) 102% | viability, T/C (second compound 3.16 µM, first compound 0.00949 µM) 100% | viability, T/C (second compound 3.16 µM, first compound 0.03 µM) 93.7% | viability, T/C (second compound 3.16 µM, first compound 0.0949 µM) 97.7% | viability, T/C (second compound 3.16 µM, first compound 0.3 µM) 99.5% | viability, T/C (second compound 10 µM, first compound 0.000949 µM) 85.1% | viability, T/C (second compound 10 µM, first compound 0.003 µM) 82.4% | viability, T/C (second compound 10 µM, first compound 0.00949 µM) 86.2% | viability, T/C (second compound 10 µM, first compound 0.03 µM) 86.2% | viability, T/C (second compound 10 µM, first compound 0.0949 µM) 90.5% | viability, T/C (second compound 10 µM, first compound 0.3 µM) 92.1%

Reference: PubChem BioAssay AID1919016 (Molecular Pharmacology Branch, DTP, NCI, 2023)
